Assay results published in ChEMBL document CHEMBL4715888, “Synthetic approaches to unsymmetrical 2,5-disubstituted 1,3,4-oxadiazoles and their MAO-B inhibitory activity. A review” (Bioorg Med Chem, 2021).

Legend:
[1] = species on record: Rattus norvegicus; test: Selectivity ratio of IC50 for Sprague-Dawley rat brain mitochondrial MAO-A to IC50 for Sprague-Dawley rat brain mitochondrial MAO-B
[2] = target: T1, Amine oxidase [flavin-containing] B (Rattus norvegicus, UniProt P19643); test: Inhibition of Sprague-Dawley rat brain mitochondrial MAO-B using [14C]-PEA as substrate by radioassay method
T1 sequence (P19643 whole entry): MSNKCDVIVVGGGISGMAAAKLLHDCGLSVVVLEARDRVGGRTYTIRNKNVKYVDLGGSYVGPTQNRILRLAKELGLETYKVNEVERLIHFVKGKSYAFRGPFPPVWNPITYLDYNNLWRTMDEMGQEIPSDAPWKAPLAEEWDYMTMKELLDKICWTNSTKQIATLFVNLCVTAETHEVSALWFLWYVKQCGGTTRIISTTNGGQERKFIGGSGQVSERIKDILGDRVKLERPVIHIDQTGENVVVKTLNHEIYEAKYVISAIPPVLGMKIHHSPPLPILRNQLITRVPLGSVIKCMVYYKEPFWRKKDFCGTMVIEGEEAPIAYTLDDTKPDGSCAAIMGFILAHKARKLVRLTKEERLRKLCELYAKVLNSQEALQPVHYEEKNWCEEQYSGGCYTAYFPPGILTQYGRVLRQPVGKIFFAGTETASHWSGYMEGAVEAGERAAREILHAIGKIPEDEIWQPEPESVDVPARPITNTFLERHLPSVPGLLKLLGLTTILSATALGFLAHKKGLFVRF

[3] = target: T2, Amine oxidase [flavin-containing] A (Rattus norvegicus, UniProt P21396); test: Inhibition of Sprague-Dawley rat brain mitochondrial MAO-A using [14C]-5-HT as substrate by radioassay method
T2 sequence (P21396 whole entry): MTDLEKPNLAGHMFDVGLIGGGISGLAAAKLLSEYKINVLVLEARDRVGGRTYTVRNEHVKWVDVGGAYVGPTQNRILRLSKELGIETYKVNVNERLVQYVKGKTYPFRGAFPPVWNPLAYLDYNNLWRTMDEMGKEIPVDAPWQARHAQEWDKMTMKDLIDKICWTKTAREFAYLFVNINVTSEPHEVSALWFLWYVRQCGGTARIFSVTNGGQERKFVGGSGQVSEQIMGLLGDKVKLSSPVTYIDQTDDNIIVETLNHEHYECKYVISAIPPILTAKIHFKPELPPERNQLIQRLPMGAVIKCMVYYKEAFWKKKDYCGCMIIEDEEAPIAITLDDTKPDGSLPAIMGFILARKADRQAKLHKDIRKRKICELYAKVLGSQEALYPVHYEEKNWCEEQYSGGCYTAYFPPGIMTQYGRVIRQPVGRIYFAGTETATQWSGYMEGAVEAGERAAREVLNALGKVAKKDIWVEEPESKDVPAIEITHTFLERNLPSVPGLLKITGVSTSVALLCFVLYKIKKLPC

[4] = target: T1, Amine oxidase [flavin-containing] B; test: Inhibition of Sprague-Dawley rat brain mitochondrial MAO-B using [14C]-PEA as substrate preincubated for 60 mins by radiochemical method
[5] = target: T1, Amine oxidase [flavin-containing] B; test: Inhibition of Sprague-Dawley rat brain mitochondrial MAO-B using [14C]-PEA as substrate preincubated for 120 mins by radiochemical method
[6] = target: T1, Amine oxidase [flavin-containing] B; test: Competitive inhibition of Sprague-Dawley rat brain mitochondrial MAO-B using PEA as substrate by Lineweaver-Burk plot analysis
[7] = target: T1, Amine oxidase [flavin-containing] B; test: Inhibition of Sprague-Dawley rat brain mitochondrial MAO-B using PEA as substrate preincubated for 60 mins; settings: read-out: Kieq

Compound | Ratio IC50 [1] | IC50 [2] | IC50 [3] | IC50 [4] | IC50 [5] | Ki [6] | Ki [7]
N#CCCn1nc(-c2ccc(-c3ccccc3)cc2)oc1=S | 304 | 74 nM | 22500 nM |  |  |  | 
N#CCCn1nc(-c2ccc(-c3ccccc3)cc2)oc1=O | 139 | 56 nM | 7800 nM |  |  |  | 

Second part, the molecule after the results:

Ratio IC50 [1] | IC50 [2] | IC50 [3] | IC50 [4] | IC50 [5] | Ki [6] | Ki [7] | Compound
> 3200 |  |  |  |  |  |  | N#CCCn1nc(-c2ccc(OCc3ccccc3)cc2)oc1=S
> 30400 |  |  | 4.7 nM | 4.7 nM |  |  | O=c1oc(-c2ccc(OCc3ccccc3)cc2)nn1CCO
> 71400 |  |  |  |  | 220 nM | 0.7 nM | N#CCCn1nc(-c2ccc(OCc3ccccc3)cc2)oc1=O
